These results are taken from patent USRE38330E1, “Preventing and reversing advanced glycosylation endproducts” (Alteon Inc., priority 1995, dated 2003).

pIC50: −log10 of the molar value. Structures can show the parent of a compound that is named as a salt. Where two headings read alike, the source gives them in different places.

Series [1] addresses T1, AGE-BSA previously crosslinked to the collagen (Bos taurus, UniProt P02769).
T1 construct: Type V BSA (bovine serum albumin); purchased Calbiochem (BSA Type V); Collaborative Biomedical Products (Biocoat rat tail collagen type I plates)
As to the kind of experiment: Sandwich enzyme immunoassay for breaking of AGE moieties from AGE-BSA crosslinked to collagen (AGE breaker assay). Format: biochemical, bovine; rat. The conditions noted are these: for IC50: AGE breaking, 16 hours 37° C. How it is done: The present invention also involves a novel sandwich enzyme immunoassay used to ascertain the ability of test compounds to “break” or reverse already formed advanced glycosylation endproducts by detecting the breaking of AGE (Advanced glycosylation endproduct) moieties from AGE-crosslinked protein. This assay comprises:
a) incubation of AGE-modified bovine serum albumin (AGE-BSA) on collagen-coated wells of microtiter plates for a period of 2-6 hours at a temperature of 37° C.;
b) washing of the wells with PBS-Tween;
c) application of the test compounds to the washed wells of step b;
d) incubation of the test compounds applied to the washed wells for an additional 12-24 hours at a temperature of about 37° C.; and
e) detection of the AGE-breaking using an antibody raised against AGE-ribonuclease or cross-link breaking with an antibody against BSA.
In order to ascertain the ability of the compounds of the instant invention to “break” or reverse already formed advanced glycosylation endproducts, a novel sandwich enzyme immunoassay was developed which detects breaking of AGE (Advanced glycosylation endproduct) moieties from AGE-crosslinked protein. The assay utilizes collagen-coated 96 will microtiter plates that are obtained commercially. AGE-modified protein (AGE-BSA) is incubated on the collagen-coated wells for four hours, is washed off the wells with PBS-Tween and the test compounds are added. Following an incubation period of 16 hours (37° C.) AGE-breaking is detected using an antibody raised against AGE-ribonuclease or with an antibody against BSA. […] Details of the assay are as follows:
1. AGE-BSA stock solutions were prepared as follows. Sodium phosphate buffer (0.4M) was prepared by dissolving 6 grams of monobasic sodium phosphate in 100 ml of distilled water, 7 grams of dibasic sodium phosphate (0.4M) in 100 ml of distilled water and adjusting the pH of the dibasic solution to 7.4 with the monobasic solution. Sodium azide (0.02 grams) was added per 100 ml volume to inhibit bacterial growth. The BSA solution was prepared as follows: 400 mg of Type V BSA (bovine serum albumin) was added for each ml of sodium phosphate buffer (above). A 400 mM glucose solution was prepared by dissolving […] of dextrose in 100 ml of sodium phosphate buffer (above). The BSA and glucose solutions were mixed 1:1 and incubated at 37° C. for 12 weeks. The pH of the incubation mixture was monitored weekly and adjusted to pH 7.4 if necessary. After 12 weeks, the AGE-BSA solution was dialyzed against PBS for 48 hours with four buffer changes, each at a 1:500 ratio of solution to dialysis buffer. Protein concentration was determined by the micro-Lowry method. The AGE-BSA stock solution was aliquoted and stored at −20° C.
2. Working solutions for crosslinking and breaking studies were prepared as follows. Test compounds were dissolved in PBS and the pH was adjusted to pH 7.4 if necessary. AGE-BSA stock solution was diluted in PBS to measure maximum crosslinking and in the inhibitor solution for testing inhibitory activity of compounds. The concentration of AGE-BSA necessary to achieve the optimum sensitivity was determined by initial titration of each lot of AGE-BSA.
3. Wash buffer (“PBS-Tween”) was prepared as follows. PBS was prepared by dissolving the following salts in one liter of distilled water: NaCl, 8 grams; KCl, 0.2 gram, KH2PO4. […] Tween-20 was added to a final concentration of 0.05% (vol/vol).
4. Substrates for detection of secondary antibody binding were prepared by diluting the HRP substrate buffer 1:10 in distilled water and mixing with ABTS chromogen 1:50 just prior to use.
1. Biocoat plates were blocked With 300 μl of “Superbloc”. Plates were blocked for one hour at room temperature and were washed with PBS-Tween three times with the Dynatech platewasher before addition of test reagents.
2. Each experiment was set up in the following manner.

Series [2] concerns the target T2, cross-linking of glycated bovine serum albumin (AGE-BSA) to the rat tail tendon collagen (Bos taurus, UniProt P02769).
T2 construct: glycated bovine serum albumin (AGE-BSA); from tissue; host or cells: collagen from rat tail tendon; BSA from bovine serum, glycated in house
Kind of series: Inhibition of cross-linking of glycated BSA (AGE-BSA) to rat tail tendon collagen coated 96-well plate (ELISA). Format: biochemical. How it is done:
The cross-linked AGE-BSA to the tail tendon coated plate was then quantitated by the polyclonal antibody raised against AGE-RNase.
The % inhibition of each test compound was calculated as follows.
A general note: ELISA stands for enzyme-linked immunosorbent assay.

Where [3] appears, read: read-out: % Inhibition Anti-AGE (at mM).
Setting [4] is: read-out: % Inhibition Anti-BSA (at mM).
Setting [5] is: detection with anti-AGE-RNase antibody, read-out: IC50 (mM) Anti-AGE.
[6] abbreviates: detection with anti-BSA antibody, read-out: IC50 (mM) Anti-BSA.

T1 sequence (P02769 25-607): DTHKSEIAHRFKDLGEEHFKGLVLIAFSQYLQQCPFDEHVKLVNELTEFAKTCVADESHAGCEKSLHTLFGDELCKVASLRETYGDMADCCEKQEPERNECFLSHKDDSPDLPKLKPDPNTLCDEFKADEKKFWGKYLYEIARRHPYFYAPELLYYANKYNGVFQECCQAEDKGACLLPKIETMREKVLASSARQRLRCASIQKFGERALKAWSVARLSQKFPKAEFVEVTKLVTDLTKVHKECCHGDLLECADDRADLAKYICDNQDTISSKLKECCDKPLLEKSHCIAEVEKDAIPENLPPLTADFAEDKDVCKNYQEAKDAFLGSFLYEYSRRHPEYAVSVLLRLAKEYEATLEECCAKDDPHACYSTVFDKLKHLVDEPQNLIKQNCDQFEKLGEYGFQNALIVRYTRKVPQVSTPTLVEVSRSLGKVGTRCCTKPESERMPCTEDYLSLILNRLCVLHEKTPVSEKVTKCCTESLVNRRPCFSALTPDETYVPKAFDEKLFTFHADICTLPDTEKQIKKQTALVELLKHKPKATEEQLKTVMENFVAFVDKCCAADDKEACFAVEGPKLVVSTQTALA
T1 sequence (P02454 152-1207 partner limits assumed): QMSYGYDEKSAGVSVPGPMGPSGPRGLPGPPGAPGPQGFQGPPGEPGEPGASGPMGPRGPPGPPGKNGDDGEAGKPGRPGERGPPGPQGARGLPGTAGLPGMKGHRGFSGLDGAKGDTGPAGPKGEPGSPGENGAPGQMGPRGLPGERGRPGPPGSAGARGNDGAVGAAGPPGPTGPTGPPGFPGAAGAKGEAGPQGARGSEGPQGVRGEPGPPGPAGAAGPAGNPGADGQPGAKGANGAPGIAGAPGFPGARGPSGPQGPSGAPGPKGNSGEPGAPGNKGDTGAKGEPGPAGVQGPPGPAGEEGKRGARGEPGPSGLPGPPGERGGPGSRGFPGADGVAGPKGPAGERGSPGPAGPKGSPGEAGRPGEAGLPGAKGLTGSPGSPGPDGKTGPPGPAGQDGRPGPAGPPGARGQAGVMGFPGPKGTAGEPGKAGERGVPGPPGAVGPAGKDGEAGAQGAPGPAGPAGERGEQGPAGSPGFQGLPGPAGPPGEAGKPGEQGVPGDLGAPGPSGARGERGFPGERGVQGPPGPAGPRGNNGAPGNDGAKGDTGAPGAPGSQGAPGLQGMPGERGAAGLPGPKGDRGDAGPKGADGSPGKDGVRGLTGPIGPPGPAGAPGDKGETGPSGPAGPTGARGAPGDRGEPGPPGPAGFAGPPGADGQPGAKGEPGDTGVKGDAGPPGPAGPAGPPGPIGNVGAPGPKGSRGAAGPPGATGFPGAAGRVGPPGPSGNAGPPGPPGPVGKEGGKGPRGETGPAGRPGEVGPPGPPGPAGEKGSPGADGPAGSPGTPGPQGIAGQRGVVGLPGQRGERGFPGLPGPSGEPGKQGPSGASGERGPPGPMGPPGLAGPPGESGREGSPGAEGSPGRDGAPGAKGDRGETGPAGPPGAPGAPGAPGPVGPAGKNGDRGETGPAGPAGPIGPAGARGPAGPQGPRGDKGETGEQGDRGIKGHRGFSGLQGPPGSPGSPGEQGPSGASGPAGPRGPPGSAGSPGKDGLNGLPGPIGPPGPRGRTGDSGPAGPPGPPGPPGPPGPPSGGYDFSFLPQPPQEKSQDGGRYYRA
T1 sequence (P02466 86-1125 partner limits assumed): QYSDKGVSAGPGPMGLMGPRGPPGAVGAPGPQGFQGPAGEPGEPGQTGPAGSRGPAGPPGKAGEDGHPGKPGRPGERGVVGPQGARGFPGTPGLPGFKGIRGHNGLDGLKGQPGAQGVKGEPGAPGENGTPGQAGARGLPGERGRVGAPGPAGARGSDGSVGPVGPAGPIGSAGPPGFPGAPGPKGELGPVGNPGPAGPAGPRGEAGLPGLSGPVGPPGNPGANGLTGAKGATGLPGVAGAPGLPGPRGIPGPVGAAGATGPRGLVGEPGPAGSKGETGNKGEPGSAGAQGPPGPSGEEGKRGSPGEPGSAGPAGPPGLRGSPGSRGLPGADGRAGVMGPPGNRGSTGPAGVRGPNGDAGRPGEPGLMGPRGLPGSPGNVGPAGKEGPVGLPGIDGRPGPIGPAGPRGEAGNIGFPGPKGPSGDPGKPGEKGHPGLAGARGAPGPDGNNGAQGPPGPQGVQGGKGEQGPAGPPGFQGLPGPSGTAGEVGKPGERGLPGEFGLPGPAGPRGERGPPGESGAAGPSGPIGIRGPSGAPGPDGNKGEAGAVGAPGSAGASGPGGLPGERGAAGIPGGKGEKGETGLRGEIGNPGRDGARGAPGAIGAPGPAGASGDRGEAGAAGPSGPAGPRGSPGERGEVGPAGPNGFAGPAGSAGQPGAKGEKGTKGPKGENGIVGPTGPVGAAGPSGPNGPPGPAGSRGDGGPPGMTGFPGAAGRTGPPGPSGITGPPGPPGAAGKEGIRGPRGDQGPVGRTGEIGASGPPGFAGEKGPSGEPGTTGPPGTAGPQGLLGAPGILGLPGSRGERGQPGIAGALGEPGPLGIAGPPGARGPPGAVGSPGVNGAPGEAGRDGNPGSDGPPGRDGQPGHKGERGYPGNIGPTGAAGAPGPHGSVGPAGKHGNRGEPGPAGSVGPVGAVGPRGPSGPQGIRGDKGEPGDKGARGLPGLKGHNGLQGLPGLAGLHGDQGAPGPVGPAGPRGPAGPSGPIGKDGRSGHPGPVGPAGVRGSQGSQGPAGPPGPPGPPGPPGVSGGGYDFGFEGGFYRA
T2 sequence (P02769 25-607): as the sequence (P02769 25-607) above

One may read the melting point as the temperature, or range, at which the solid turns liquid. With `CC[n+]1csc(CCO)c1C.[Br-]`, the melting point was in the range of 84 to 85 °C.
Same read-out and setting: the figure for `O=C(C[n+]1csc2ccccc21)c1ccccc1.[Br-]` is 240 to 241 °C (dec.); for `COC(=O)C[n+]1csc(CCOC(C)=O)c1C.[Br-]` it is 217 to 218 °C; for `CC(=O)OCCc1sc[n+](CC(N)=O)c1C.[Br-]` it is 233 to 234 °C.
The molecule `COC(=O)C[n+]1ccsc1N.[Br-]` displayed a melting point of 191 to 192 °C.
Still for that read-out and setting: the value for `COC(=O)C[n+]1c(N)sc2ccccc21.[Br-]` was 236 to 237 °C; that for `NC(=O)C[n+]1ccsc1N.[Br-]` was 209 to 210 °C.
Still for that read-out and setting: the value for `NC(=O)C[n+]1c(N)sc2ccccc21.[Br-]` was 234 to 235 °C; that for `Cc1c(CCO)sc[n+]1CC(=O)c1ccc(Br)cc1` (as salt: bromide) [3-(2-[4^1-bromophenyl]-2-oxoethyl)-4-methyl-5-(2-hydroxyethyl)thiazolium bromide] was 251 to 252 °C (dec.).
Usually inhibition stands for the drop in the measured response relative to a control, in per cent. For orientation: pIC50 means −log10 of the IC50, conventionally taken in molar units. Higher therefore signals a small IC50. In the case of `Nc1sc2ccccc2[n+]1N` [2,3-diamino-benzothiazolium mesitylenesulfonate], the melting point is 212 to 214 °C (dec.). In addition, in series [1] (at 30 mM, detection with anti-AGE-RNase antibody, read-out: % Inhibition Anti-AGE (at mM)), the inhibition at 30000 µM was found to be 75%. In addition, in series [1] (at 30 mM, detection with anti-BSA antibody, read-out: % Inhibition Anti-BSA (at mM)), the inhibition at 30000 µM was 35%. Besides, the negative logarithm of the IC50 (pIC50) in series [2] was 4.13.
For the molecule `COC(=O)C[n+]1ccsc1` [3-(2-Methoxy-2-oxoethyl)thiazolium bromide], the inhibition at 30000 µM in series [1] (setting [3]) amounted to 38%; in series [1] (setting [4]) it was 41%. The molecule further showed a pIC50 in series [2] of 3.86.
In the case of `Cc1sc[n+](CC(=O)c2ccc(Br)cc2)c1C` [3-(2-[4^1-bromophenyl]-2-oxoethyl)-4,5-dimethylthiazolium bromide], in series [2], the pIC50 was 2.53.
Same read-out and setting: the value for `Cc1c(CCO)sc[n+]1CC(=O)c1ccc(Br)cc1` [3-(2-[4^1-bromophenyl]-2-oxoethyl)-4-methyl-5-(2-hydroxyethyl)thiazolium bromide] was 2.35.
As for `O=C(C[n+]1ccsc1)c1ccc(Br)cc1.[Br-]` [3-(2-[4^1-bromophenyl]-2-oxoethyl)-thiazolium bromide], in series [1] (at 30 mM, detection with anti-AGE-RNase antibody), the “% Inhibition Anti-AGE (at mM)” value came out at 76%. The “% Inhibition Anti-BSA (at mM)” value in series [1] (at 30 mM, detection with anti-BSA antibody) is 25%.
As to `Cc1sc[n+](CC(N)=O)c1C.[Br-]` [3-(2-amino-2-oxoethyl)-4,5-dimethyl-thiazolium bromide], the melting point is 147 to 148 °C. Further, the inhibition at 30000 µM in series [1] (setting [3]) turned out to be 69%. The inhibition at 30000 µM in series [1] (setting [4]) was determined as 75%. The molecule further showed a negative-log IC50 (pIC50) in series [2] of 3.47.
What is called IC50 is the point on the concentration scale where inhibition reaches its midpoint. On to `Cc1c(CCO)sc[n+]1CC(N)=O` [3-(2-amino-2-oxoethyl)-4-methyl-5-(2-hydroxyethyl)thiazolium bromide], for which the 50% inhibitory concentration (IC50) in series [1] (setting [5]) is 12 µM; in series [1] (setting [6]), 120 µM. Further, the pIC50 in series [2] is 2.90.
On the same counts, the results for `Cc1csc[n+]1CC(N)=O` [3-(2-amino-2-oxoethyl)-4-methyl-thiazolium bromide] are 4700 µM, 38600 µM and 3.94.
In turn, `Cc1c[n+](CC(N)=O)cs1.[Br-]` [3-(2-amino-2-oxoethyl)-5-methyl-thiazolium bromide] gave a melting point of 179 to 180 °C. This molecule also showed a pIC50 in series [2] of 4.54.
Regarding `NC(=O)C[n+]1csc2ccccc21.[Br-]` [3-(2-amino-2-oxoethyl)-benzothiazolium bromide], the melting point was in the range of 222 to 223 °C. Moreover, the concentration for half-maximal inhibition (IC50) in series [1] (setting [5]) stood at 140 µM. Also, the IC50 in series [1] (setting [6]) is 520 µM. Further, the pIC50 in series [2] is 3.21.
Consider `NC(=O)C[n+]1ccsc1.[Br-]` [3-(2-amino-2-oxoethyl)thiazolium bromide, 3-(2-amino-2-oxoethyl)-thiazolium bromide], for which the melting point lay in the range of 205 to 206 °C. In series [2], this molecule showed a negative-log IC50 (pIC50) of 3.65.
As for `COC(=O)C[n+]1csc(C)c1C` [3-(2-methoxy-2-oxoethyl)-4,5-dimethylthiazolium bromide], the inhibition at 30000 µM in series [1] (setting [3]) came out at 50%; in series [1] (setting [4]) it was 30%. Moreover, in series [2], the negative logarithm of the IC50 (pIC50) is 3.86.
`COC(=O)C[n+]1csc(CCO)c1C.[Br-]` [3-(2-methoxy-2-oxoethyl)-4-methyl-5-(2-hydroxyethyl)-thiazolium bromide] registered a melting point of 137 to 138 °C.
`COC(=O)C[n+]1cscc1C.[Br-]` [3-(2-methoxy-2-oxoethyl)-4-methylthiazolium bromide]: the melting point is 149 to 151 °C (dec.). The inhibition at 30000 µM in series [1] (setting [3]) was 54%. The inhibition at 30000 µM in series [1] (setting [4]) stood at 41%.
In the case of `COC(=O)C[n+]1csc(C)c1.[Br-]` [3-(2-methoxy-2-oxoethyl)-5-methyl-thiazolium bromide], the melting point is 193 to 194 °C (dec.). In series [1] (setting [3]), the inhibition at 30000 µM came to 72%. Moreover, the inhibition at 30000 µM in series [1] (setting [4]) was 27%. This molecule gave a pIC50 in series [2] of 4.14.
On to `COC(=O)C[n+]1csc2ccccc21` [3-(2-methoxy-2-oxoethyl)-benzothiazolium bromide], for which the IC50 is 1200 µM in series [1] (setting [5]) and 25900 µM in series [1] (setting [6]).
`CC(=O)C[n+]1ccsc1.[Cl-]` [3-(2-methyl-2-oxoethyl)thiazolium chloride] showed a melting point of 178 to 179 °C. The IC50 in series [1] (IC50 (mM) Anti-AGE, detection with anti-AGE-RNase antibody) was 0.036 µM. In series [1] (IC50 (mM) Anti-BSA, detection with anti-BSA antibody), this molecule gave a 50% inhibitory concentration (IC50) of 260 µM.
As for `Cc1sc[n+](CC(=O)c2ccccc2)c1C` [3-(2-phenyl-2-oxoethyl)-4,5-dimethylthiazolium bromide], in series [1] (setting [3]), the inhibition at 30000 µM stood at 56%. This molecule also showed a pIC50 in series [2] of 1.31.
As to `Cc1c(CCO)sc[n+]1CC(=O)c1ccccc1` [3-(2-phenyl-2-oxoethyl)-4-methyl-5-(2-hydroxyethyl)-thiazolium bromide], the 50% inhibitory concentration (IC50) in series [1] (setting [5]) was found to be 14300 µM.
Take `Cc1c[n+](CC(=O)c2ccccc2)cs1` [3-(2-phenyl-2-oxoethyl)-5-methyl-thiazolium bromide]: the pIC50 in series [2] was 1.86.
`O=C(C[n+]1ccsc1)c1ccccc1` [3-(2-phenyl-2-oxoethyl)thiazolium bromide]: the IC50 is 20 µM in series [1] (setting [5]) and 14 µM in series [1] (setting [6]).
As for `O=C(O)C[n+]1csc2ccccc21.[Br-]` [3-(carboxymethyl)benzothiazolium bromide, 3-(carboxymethyl)-benzothiazolium bromide], the melting point was 250 °C (dec.). Further, the inhibition at 30000 µM in series [1] (setting [3]) amounted to 63.7%. Moreover, the inhibition at 30000 µM in series [1] (setting [4]) is 17.9%.
As to `Cc1c(CCO)sc[n+]1Cc1ccccc1.[Cl-]` [3-benzyl-5-(2-hydroxyethyl)-4-methyl thiazolium chloride], the melting point fell in the range of 144 to 146 °C. The IC50 in series [1] (setting [5]) is 420 µM. The IC50 in series [1] (setting [6]) was 550 µM.
